Laboratory results published in the kinase profiling compilation of Christmann-Franck et al. (2016).

Columns and labels:
Test in all cases: KINOMEscan competition binding
Conditions in all cases: compound 10.0 µM
[1] = biological target: EGFR (human) (UniProt P00533)
[2] = biological target: RIPK1 (human) (UniProt Q13546)
[3] = biological target: MARK2 (human) (UniProt Q7KZI7)
[4] = biological target: PRKX (human) (UniProt P51817)
[5] = biological target: ROCK2 (human) (UniProt O75116)
[6] = biological target: CAMK2D (human) (UniProt Q13557)
Chain of CAMK2D (human) (Q13557 whole entry, looked up): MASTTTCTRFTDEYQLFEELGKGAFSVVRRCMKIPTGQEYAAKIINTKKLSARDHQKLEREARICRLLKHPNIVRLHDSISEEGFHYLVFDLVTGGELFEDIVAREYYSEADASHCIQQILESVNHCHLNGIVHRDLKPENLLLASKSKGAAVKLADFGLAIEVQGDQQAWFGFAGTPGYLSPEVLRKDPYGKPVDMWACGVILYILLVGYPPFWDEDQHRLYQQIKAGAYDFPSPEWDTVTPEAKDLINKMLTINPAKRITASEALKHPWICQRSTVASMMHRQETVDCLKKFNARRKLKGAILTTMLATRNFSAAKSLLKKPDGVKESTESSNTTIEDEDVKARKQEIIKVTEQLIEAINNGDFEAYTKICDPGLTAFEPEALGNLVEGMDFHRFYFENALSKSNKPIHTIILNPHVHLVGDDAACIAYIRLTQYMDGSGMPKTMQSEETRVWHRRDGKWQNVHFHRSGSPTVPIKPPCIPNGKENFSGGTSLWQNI

[7] = test system: ABL1 (human), P00519 [Y253F]
[8] = biological target: NEK6 (human) (UniProt Q9HC98)
Chain of NEK6 (human) (Q9HC98 whole entry, looked up): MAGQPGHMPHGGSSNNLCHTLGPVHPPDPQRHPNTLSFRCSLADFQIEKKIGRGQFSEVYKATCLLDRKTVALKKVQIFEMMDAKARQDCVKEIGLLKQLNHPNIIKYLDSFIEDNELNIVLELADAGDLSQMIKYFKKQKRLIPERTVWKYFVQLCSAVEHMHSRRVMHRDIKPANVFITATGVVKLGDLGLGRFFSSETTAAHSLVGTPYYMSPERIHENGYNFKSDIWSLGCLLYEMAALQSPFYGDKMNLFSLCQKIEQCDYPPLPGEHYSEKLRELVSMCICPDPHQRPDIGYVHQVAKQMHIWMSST

[9] = biological target: AURKA (human) (UniProt O14965)
[10] = biological target: ACVRL1 (human) (UniProt P37023)
[11] = biological target: MAPK12 (human) (UniProt P53778)
[12] = biological target: EPHB4 (human) (UniProt P54760)
[13] = biological target: PIK3C2B (human) (UniProt O00750)
[14] = biological target: TXK (human) (UniProt P42681)
[15] = biological target: PKMYT1 (human) (UniProt Q99640)
[16] = biological target: TYRO3 (human) (UniProt Q06418)
[17] = biological target: RPS6KA5 KD1 (human) (UniProt O75582)
[18] = biological target: MAP4K3 (human) (UniProt Q8IVH8)
[19] = test system: ABL1 (human), P00519 [F317L]
[20] = biological target: LIMK1 (human) (UniProt P53667)
[21] = test system: EGFR (human), P00533 [A750P; 747-749 del]
[22] = biological target: ALK (human) (UniProt Q9UM73)
[23] = biological target: PHKG1 (human) (UniProt Q16816)
[24] = biological target: MARK4 (human) (UniProt Q96L34)
[25] = biological target: LCK (human) (UniProt P06239)
[26] = biological target: IKBKE (human) (UniProt Q14164)
[27] = biological target: MAPKAPK5 (human) (UniProt Q8IW41)
Chain of MAPKAPK5 (human) (Q8IW41 whole entry, looked up): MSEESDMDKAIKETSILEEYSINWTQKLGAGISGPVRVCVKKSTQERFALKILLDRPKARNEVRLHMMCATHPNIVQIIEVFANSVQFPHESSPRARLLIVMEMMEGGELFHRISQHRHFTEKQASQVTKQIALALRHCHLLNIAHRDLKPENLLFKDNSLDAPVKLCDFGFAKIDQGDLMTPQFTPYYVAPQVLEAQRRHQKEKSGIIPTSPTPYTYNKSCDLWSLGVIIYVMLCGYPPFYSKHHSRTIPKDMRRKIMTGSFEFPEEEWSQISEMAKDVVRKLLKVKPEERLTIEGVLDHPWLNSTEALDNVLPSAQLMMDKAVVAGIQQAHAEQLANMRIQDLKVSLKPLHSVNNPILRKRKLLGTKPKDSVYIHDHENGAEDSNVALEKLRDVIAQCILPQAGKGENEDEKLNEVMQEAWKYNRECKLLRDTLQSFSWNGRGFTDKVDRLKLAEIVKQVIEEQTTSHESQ

[28] = test system: FGFR3 (human), P22607 [G697C]
[29] = biological target: PRKACA (human) (UniProt P17612)
[30] = biological target: MST4 (human) (UniProt Q9P289)
[31] = test system: RET (human), P07949 [M918T]
Chain of RET (human), P07949 [M918T] (P07949 whole entry M918T, looked up): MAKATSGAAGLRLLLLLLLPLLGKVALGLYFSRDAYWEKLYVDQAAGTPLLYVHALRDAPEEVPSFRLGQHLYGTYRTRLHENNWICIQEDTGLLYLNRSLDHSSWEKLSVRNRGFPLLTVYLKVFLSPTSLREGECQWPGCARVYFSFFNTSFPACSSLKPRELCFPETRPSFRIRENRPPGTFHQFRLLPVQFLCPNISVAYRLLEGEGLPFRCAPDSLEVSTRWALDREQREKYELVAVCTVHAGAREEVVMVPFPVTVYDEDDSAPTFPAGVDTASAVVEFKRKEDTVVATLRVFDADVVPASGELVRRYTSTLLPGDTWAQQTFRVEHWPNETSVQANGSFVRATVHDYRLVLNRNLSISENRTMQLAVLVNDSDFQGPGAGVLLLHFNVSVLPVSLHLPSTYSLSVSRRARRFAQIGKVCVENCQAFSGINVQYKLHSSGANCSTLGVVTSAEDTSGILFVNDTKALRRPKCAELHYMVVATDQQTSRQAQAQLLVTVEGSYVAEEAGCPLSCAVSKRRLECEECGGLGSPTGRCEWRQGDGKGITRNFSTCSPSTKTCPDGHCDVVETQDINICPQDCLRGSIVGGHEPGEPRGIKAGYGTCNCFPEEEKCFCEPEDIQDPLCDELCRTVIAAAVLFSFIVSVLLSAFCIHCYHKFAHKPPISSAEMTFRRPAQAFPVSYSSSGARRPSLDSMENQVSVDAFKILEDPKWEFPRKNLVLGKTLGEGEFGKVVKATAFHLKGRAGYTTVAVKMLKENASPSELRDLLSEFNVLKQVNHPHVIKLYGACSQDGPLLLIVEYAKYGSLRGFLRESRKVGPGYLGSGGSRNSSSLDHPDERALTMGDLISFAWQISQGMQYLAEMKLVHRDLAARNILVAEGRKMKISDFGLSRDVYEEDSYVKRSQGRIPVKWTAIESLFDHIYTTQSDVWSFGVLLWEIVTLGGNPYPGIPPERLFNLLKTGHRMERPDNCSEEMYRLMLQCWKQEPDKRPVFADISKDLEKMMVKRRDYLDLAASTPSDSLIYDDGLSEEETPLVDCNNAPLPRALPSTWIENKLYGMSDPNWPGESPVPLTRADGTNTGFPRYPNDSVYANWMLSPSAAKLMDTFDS

[32] = biological target: INSR (human) (UniProt P06213)
[33] = biological target: ITK (human) (UniProt Q08881)
Chain of ITK (human) (Q08881 whole entry, looked up): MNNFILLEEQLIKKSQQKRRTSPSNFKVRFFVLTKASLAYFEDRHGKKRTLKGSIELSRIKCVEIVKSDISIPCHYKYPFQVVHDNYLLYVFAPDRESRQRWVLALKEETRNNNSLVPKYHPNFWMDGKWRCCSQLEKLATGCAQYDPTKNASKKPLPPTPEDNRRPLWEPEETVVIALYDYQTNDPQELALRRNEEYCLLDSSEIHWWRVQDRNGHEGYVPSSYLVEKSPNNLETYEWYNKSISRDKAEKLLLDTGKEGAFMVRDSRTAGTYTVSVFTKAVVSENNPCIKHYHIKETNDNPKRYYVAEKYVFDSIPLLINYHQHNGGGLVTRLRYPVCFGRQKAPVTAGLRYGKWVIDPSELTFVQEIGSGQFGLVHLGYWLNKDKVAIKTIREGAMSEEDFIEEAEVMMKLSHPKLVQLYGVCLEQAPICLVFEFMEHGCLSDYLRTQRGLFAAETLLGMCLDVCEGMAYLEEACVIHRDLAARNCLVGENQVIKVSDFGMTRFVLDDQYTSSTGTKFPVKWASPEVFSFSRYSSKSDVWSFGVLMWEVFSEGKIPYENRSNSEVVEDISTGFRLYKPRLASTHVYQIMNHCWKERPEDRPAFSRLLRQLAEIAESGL

[34] = biological target: FGFR4 (human) (UniProt P22455)
[35] = biological target: PKN1 (human) (UniProt Q16512)
[36] = biological target: STK10 (human) (UniProt O94804)
[37] = biological target: MAP2K1 (human) (UniProt Q02750)
[38] = biological target: PDGFRA (human) (UniProt P16234)
Chain of PDGFRA (human) (P16234 whole entry, looked up): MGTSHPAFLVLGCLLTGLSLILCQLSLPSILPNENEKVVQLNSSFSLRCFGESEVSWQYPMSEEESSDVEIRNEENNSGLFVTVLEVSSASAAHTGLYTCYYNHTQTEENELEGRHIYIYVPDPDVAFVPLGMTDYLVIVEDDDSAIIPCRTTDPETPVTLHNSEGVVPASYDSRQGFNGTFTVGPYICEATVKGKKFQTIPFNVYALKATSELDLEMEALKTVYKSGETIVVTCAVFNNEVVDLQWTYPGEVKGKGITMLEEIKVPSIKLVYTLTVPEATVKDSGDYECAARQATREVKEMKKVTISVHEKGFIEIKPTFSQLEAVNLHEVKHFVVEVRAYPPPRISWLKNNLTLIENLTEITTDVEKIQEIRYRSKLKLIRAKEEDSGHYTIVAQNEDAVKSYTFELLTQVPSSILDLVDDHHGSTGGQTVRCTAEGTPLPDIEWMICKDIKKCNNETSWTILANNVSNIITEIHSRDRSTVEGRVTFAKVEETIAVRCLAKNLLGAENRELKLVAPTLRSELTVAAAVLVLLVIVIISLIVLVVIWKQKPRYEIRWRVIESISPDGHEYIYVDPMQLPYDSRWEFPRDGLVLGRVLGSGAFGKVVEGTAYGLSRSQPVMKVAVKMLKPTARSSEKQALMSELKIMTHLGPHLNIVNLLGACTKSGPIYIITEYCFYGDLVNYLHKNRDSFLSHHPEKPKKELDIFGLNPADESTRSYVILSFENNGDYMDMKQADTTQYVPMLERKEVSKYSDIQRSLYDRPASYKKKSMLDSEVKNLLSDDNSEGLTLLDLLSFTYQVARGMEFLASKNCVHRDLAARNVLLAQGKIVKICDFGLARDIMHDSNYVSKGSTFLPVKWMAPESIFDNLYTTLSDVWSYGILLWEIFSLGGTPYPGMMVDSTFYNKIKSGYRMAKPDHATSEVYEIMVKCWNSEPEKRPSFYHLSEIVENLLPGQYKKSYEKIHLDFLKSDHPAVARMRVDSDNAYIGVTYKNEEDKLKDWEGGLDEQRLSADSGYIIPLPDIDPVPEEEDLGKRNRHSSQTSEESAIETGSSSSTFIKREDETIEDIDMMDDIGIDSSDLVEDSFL

[39] = biological target: LIMK2 (human) (UniProt P53671)
Chain of LIMK2 (human) (P53671 whole entry, looked up): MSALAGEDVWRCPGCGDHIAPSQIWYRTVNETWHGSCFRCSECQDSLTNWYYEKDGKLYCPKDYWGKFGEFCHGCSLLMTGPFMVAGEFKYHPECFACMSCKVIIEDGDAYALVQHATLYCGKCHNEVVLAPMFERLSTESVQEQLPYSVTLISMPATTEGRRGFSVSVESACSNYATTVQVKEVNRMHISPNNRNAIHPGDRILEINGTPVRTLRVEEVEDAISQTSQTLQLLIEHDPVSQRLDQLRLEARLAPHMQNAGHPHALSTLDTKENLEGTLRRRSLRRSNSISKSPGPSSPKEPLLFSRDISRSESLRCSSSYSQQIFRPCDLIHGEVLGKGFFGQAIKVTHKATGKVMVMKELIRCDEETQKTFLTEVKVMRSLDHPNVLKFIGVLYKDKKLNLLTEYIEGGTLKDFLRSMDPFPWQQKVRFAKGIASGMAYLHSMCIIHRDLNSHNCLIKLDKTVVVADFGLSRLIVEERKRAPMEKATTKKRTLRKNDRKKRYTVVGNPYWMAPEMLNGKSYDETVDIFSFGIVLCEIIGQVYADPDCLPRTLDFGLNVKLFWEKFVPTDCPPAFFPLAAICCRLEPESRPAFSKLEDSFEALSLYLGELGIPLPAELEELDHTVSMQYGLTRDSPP

[40] = biological target: EIF2AK2 (human) (UniProt P19525)
[41] = biological target: CDK11B (human) (UniProt P21127)
[42] = biological target: CDK3 (human) (UniProt Q00526)
Chain of CDK3 (human) (Q00526 whole entry, looked up): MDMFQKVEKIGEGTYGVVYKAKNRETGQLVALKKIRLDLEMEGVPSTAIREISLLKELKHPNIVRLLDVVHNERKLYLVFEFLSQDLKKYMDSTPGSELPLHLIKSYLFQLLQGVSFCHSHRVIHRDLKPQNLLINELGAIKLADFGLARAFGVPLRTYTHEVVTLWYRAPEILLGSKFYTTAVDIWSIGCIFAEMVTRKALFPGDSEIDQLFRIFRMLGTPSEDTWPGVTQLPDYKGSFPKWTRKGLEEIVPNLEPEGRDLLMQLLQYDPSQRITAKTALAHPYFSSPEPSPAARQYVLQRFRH

CN1CCN(c2ccc(C(=O)Nc3ncc4c(n3)N(C)c3ccccc3C(=O)N4C)cc2)CC1
kinase still bound, per cent of control [1]: 100% | kinase still bound, per cent of control [2]: 100% | kinase still bound, per cent of control [3]: 100% | kinase still bound, per cent of control [4]: 86% | kinase still bound, per cent of control [5]: 100% | kinase still bound, per cent of control [6]: 100% | kinase still bound, per cent of control [7]: 100% | kinase still bound, per cent of control [8]: 100% | kinase still bound, per cent of control [9]: 96% | kinase still bound, per cent of control [10]: 98% | kinase still bound, per cent of control [11]: 98% | kinase still bound, per cent of control [12]: 97% | kinase still bound, per cent of control [13]: 99% | kinase still bound, per cent of control [14]: 100% | kinase still bound, per cent of control [15]: 93% | kinase still bound, per cent of control [16]: 100% | kinase still bound, per cent of control [17]: 87% | kinase still bound, per cent of control [18]: 100% | kinase still bound, per cent of control [19]: 83% | kinase still bound, per cent of control [20]: 100% | kinase still bound, per cent of control [21]: 100% | kinase still bound, per cent of control [22]: 100% | kinase still bound, per cent of control [23]: 98% | kinase still bound, per cent of control [24]: 91% | kinase still bound, per cent of control [25]: 100% | kinase still bound, per cent of control [26]: 100% | kinase still bound, per cent of control [27]: 63% | kinase still bound, per cent of control [28]: 98% | kinase still bound, per cent of control [29]: 100% | kinase still bound, per cent of control [30]: 100% | kinase still bound, per cent of control [31]: 98% | kinase still bound, per cent of control [32]: 100% | kinase still bound, per cent of control [33]: 100% | kinase still bound, per cent of control [34]: 100% | kinase still bound, per cent of control [35]: 100% | kinase still bound, per cent of control [36]: 100% | kinase still bound, per cent of control [37]: 100% | kinase still bound, per cent of control [38]: 100% | kinase still bound, per cent of control [39]: 100% | kinase still bound, per cent of control [40]: 100% | kinase still bound, per cent of control [41]: 100% | kinase still bound, per cent of control [42]: 100%
